Test results as given in the supplement of paper PMC10307832.

Legend:
Assay in all cases: relative viability (nuclei count vs DMSO), 5 days (fraction); higher = more cells survive
[1] = compound: C1CSC2=C(C(=O)N1)SC3=C2C=C(C=C3)O [kb NB 142-70] + CS(=O)(=O)N1CCN(Cc2cc3nc(-c4cccc5[nH]ncc45)nc(N4CCOCC4)c3s2)CC1 [Pictilisib] (partner 1 µM)
Outline: (§1)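 A single step with final 0.05% Triton X-100, 1% formaldehyde and 1 ug/ml Hoechst fixed the cells and stained nuclei 5 days after treatment. Lung cancer cell lines in 1536-well plates had been treated by pin tool the day after seeding with one drug alone or a fixed anchor-drug dose plus five library-drug doses (not always all listed) in √10 steps, and nuclei were counted on 4× images. Relative viability is the ratio of nuclei in treated wells to nuclei in vehicle wells, taken as the median of duplicate plates.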

[2] = compound: NCC(=O)Nc1ccc(-n2nc(C(F)(F)F)cc2-c2ccc3c(ccc4ccccc43)c2)cc1 + C[C@]1(O)C[C@@H](c2nc(-c3ccc4ccc(-c5ccccc5)nc4c3)c3c(N)nccn32)C1 [Linsitinib] (partner 1 µM)
Outline: as §1

[3] = compound: C1CSC2=C(C(=O)N1)SC3=C2C=C(C=C3)O [kb NB 142-70] + Cc1nc(NC(=O)N2CCC[C@H]2C(N)=O)sc1-c1ccnc(C(C)(C)C(F)(F)F)c1 [Alpelisib] (partner 2 µM)
Outline: as §1

[4] = compound: NCC(=O)Nc1ccc(-n2nc(C(F)(F)F)cc2-c2ccc3c(ccc4ccccc43)c2)cc1
Outline: (§2)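 Viability is treated-well nuclei as a fraction of vehicle-well nuclei, reported as the median across plates. Before counting, lung cancer cell lines were kept overnight at 37 °C in 1536-well plates, pinned with five √10-spaced library-drug doses on vehicle-anchored plates, and left 5 days without medium change, then fixed, permeabilised and Hoechst-stained in one step, imaged at 4× and counted by MetaXpress. A plate passed only if control CV was below 25% and at least one doubling occurred.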

[5] = compound: C1CSC2=C(C(=O)N1)SC3=C2C=C(C=C3)O [kb NB 142-70]
Outline: as §2

**Q.** For UMC-11, which relative viability ([1]; first compound 0.1 µM) is on record?
**A.** The relative viability was 0.83.

**Q.** What about the relative viability ([1]; first compound 1 µM) of the same cell line?
**A.** Its relative viability is 0.719.

**Q.** What about the relative viability ([1]; first compound 3.162 µM) of the same cell line?
**A.** The relative viability was 0.44.

**Q.** And the relative viability ([2]; first compound 0.02 µM)?
**A.** The relative viability was 0.995.

**Q.** And the relative viability ([2]; first compound 0.06325 µM)?
**A.** Its relative viability is 1.03.

**Q.** What about the relative viability ([2]; first compound 0.2 µM) of the same cell line?
**A.** The relative viability was 1.16.

**Q.** And the relative viability ([2]; first compound 0.6325 µM)?
**A.** The relative viability was 0.966.

**Q.** What about the relative viability ([2]; first compound 2 µM) of the same cell line?
**A.** Its relative viability is 0.918.

**Q.** And the relative viability ([3]; first compound 0.1 µM)?
**A.** The relative viability was 0.96.

**Q.** And the relative viability ([3]; first compound 1 µM)?
**A.** The relative viability was 0.959.

**Q.** What about the relative viability ([3]; first compound 3.162 µM) of the same cell line?
**A.** The relative viability was 0.418.

**Q.** And the relative viability ([4]; 0.02 µM)?
**A.** Its relative viability is 0.93.

**Q.** And the relative viability ([4]; 0.06325 µM)?
**A.** Its relative viability is 1.

**Q.** And the relative viability ([4]; 0.2 µM)?
**A.** Its relative viability is 1.05.

**Q.** And the relative viability ([4]; 0.6325 µM)?
**A.** The relative viability was 1.01.

**Q.** What about the relative viability ([4]; 2 µM) of the same cell line?
**A.** Its relative viability is 0.931.

**Q.** And the relative viability ([5]; 0.1 µM)?
**A.** The relative viability was 1.03.

**Q.** And the relative viability ([5]; 1 µM)?
**A.** Its relative viability is 0.973.

**Q.** And the relative viability ([5]; 3.162 µM)?
**A.** Its relative viability is 0.572.
